Values quoted from earlier work, collected in patent US5716935A, “Use of antiotensin II analogs in tissue repair” (University of Southern California, priority 1996, dated 1998).

What was measured:
[1] = system: aminopeptidase; conditions: reported in literature
[2] = system: wound tissue; conditions: applied to wound tissue; U.S. Pat. No. 5,015,629

Compound	cleavage by aminopeptidase [1]	rate of wound healing [2]
CC[C@H](C)[C@H](NC(=O)[C@H](Cc1ccc(O)cc1)NC(=O)[C@@H](NC(=O)[C@H](CCCNC(=N)N)NC(=O)CNC)C(C)C)C(=O)N[C@@H](Cc1cnc[nH]1)C(=O)N1CCC[C@H]1C(=O)N[C@@H](Cc1ccccc1)C(=O)O [Analog 4, Sar-Arg-Val-Tyr-Ile-His-Pro-Phe]	resistant	–
Asp-Arg-Val-Tyr-Ile-His-Pro-Phe [angiotensin II, octapeptide present in humans and other species; known pressor agent]	–	significantly increases
